pEC50: −log10 of the molar value.
Tests used:
JCPyV [1] = assay: Dose dependent inhibition of infection, flow cytometric scoring, SVG-A cells; type: cell-based, JC polyomavirus; conditions: for inhibition of JCPyV infection (FIG. 8C): 100 μM, SVG-A cells pre-incubated, flow cytometry
[2] = Conversion (cyclization) of Retro-2 in solution; type: physicochemical
BKPyV [3] = assay: Dose dependent inhibition of infection, flow cytometric scoring, Vero cells; type: cell-based, BK polyomavirus; conditions: Betapolyomavirus hominis, VP1 at 72 h, compared to vehicle control, read-out: calculated EC50, decrease in percentage of cells expressing VP1
SV40 [4] = assay: as above; type: cell-based, simian virus 40; conditions: Betapolyomavirus macacae, VP1 at 72 h, compared to vehicle control, read-out: calculated EC50, decrease in percentage of cells expressing VP1
Ad5-GFP pseudovirus = type: cell-based, Adenovirus Type 5; conditions: Vero cells pre-treated, GFP positive cells by flow cytometry
JCPyV [5] = assay: Multicycle growth assay and reinfection assay in established infection, SVG-A cells; type: cell-based, JC polyomavirus
BKPyV [6] = assay: Multicycle growth assay and reinfection assay in established infection, Vero cells; type: cell-based, BK polyomavirus
SV40 [7] = assay: as above; type: cell-based, simian virus 40
SVG-A or Vero cells = type: cell-based
Procedure: The viability of SVG-A or Vero cells were first tested after treatment with Retro-2^cycl. Cells were treated with Retro-2^cycl at the indicated concentrations for 72 h before viability was assessed using the CellTiter 96 AQueous One Solution Cell Proliferation Assay. As a control, cells were treated with either 0.04% DMSO or with 10% SDS. Error bars denote standard deviation.

JCPyV [8] = assay: Time course (time of addition) experiment, SVG-A cells; type: cell-based, JC polyomavirus
BKPyV [9] = assay: Time course (time of addition) experiment, Vero cells; type: cell-based, BK polyomavirus
SV40 [10] = assay: as above; type: cell-based, simian virus 40
BKPyV [11] = assay: Binding of labeled virus to Vero cells, flow cytometry; type: cell-based, BK polyomavirus; conditions: 100 μM, 1 h pretreatment
SV40 [12] = assay: as above; type: cell-based, simian virus 40; conditions: 100 μM, 1 h pretreatment
JCPyV [13] = assay: Endocytosis assay, trypan blue quenching, confocal microscopy; type: cell-based, JC polyomavirus; conditions: 100 μM Retro-2, 30 μM chloropromazine; fixed at 2 h
BKPyV [14] = assay: as above; type: cell-based, BK polyomavirus; conditions: 100 μM Retro-2, 100 μM nystatin; fixed at 2 h
SV40 [15] = assay: as above; type: cell-based, simian virus 40; conditions: 100 μM Retro-2, 100 μM nystatin; fixed at 2 h
CTxB [16] = type: cell-based
JCPyV [17] = assay: ER trafficking assay, colocalization with PDI; type: cell-based, JC polyomavirus
BKPyV [18] = assay: ER trafficking assay, colocalization with PDI; type: cell-based, BK polyomavirus
SV40 [19] = assay: ER trafficking assay, colocalization with PDI; type: cell-based, simian virus 40
CTxB [20] = type: cell-based; remark: listed apart in the source
JCPyV [21] = assay: VP2 release assay; type: cell-based, JC polyomavirus; conditions: 100 μM Retro-2, 500 ng/mL brefeldin A; MOI 10, 10 hpi
BKPyV [22] = assay: VP2 release assay; type: cell-based, BK polyomavirus; conditions: 100 μM Retro-2, 500 ng/mL brefeldin A; MOI 10, 10 hpi
SV40 [23] = assay: VP2 release assay; type: cell-based, simian virus 40; conditions: 100 μM Retro-2, 500 ng/mL brefeldin A; MOI 10, 10 hpi
Stx2 = conditions: cited from earlier work
cells = conditions: cited from earlier work
[24] = 100 μM, re-fed daily, 12 days post infection, MOI 0.01

## CCc1ccc(C2Nc3ccccc3C(=O)N2c2ccccc2)s1 (stereo not drawn) [BU62382A4]
JCPyV [1]; preliminary SAR, ethyl instead of methyl at position 5 of thiophenyl ring
  potency against polyomavirus infectivity relative to Retro-2^cycl: does not negatively impact potency

## Cc1ccc(/C=N/c2ccccc2C(=O)Nc2ccccc2)s1 [Retro-2, 2-(((5-methylthiophen-2-yl)methylene)amino)-N-phenylbenzamide]
[2]
  conversion to Retro-2^cycl in solution: rapidly converts

## Cc1ccc(C2Nc3ccccc3C(=O)N2c2ccccc2)s1 (stereo not drawn) [Retro-2^cycl, 2-(5-methylthiophen-2-yl)-3-phenyl-2,3-dihydroquinazolin-4(1H)-one]
JCPyV [1]; JC polyomavirus, SVG-A cells, VP1 at 72 h, compared to vehicle control, read-out: calculated EC50, decrease in percentage of cells expressing VP1
  pEC50: 4.55
BKPyV [3]
  pEC50: 4.21
SV40 [4]
  pEC50: 4.23
Ad5-GFP pseudovirus
  inhibition of Ad5-GFP transduction: did not inhibit transduction
JCPyV [5]; [24]
  inhibition of viral spread (percentage of infected cells vs vehicle control): 90.5%
JCPyV [5]; cultures treated with 100 μM
  infectious virions in tissue culture supernatant (reinfection of naive cells): significantly less infectious virions
JCPyV [5]; phase contrast microscopy at 15 days post infection, vs DMSO
  cytopathic effect in JCV infected SVG-A cells: reduces cytopathic effect
BKPyV [6]; [24]
  inhibition of viral spread (percentage of infected cells vs vehicle control): 89%
BKPyV [6]; cultures treated with 100 μM
  infectious virions in tissue culture supernatant (reinfection of naive cells): significantly less infectious virions
SV40 [7]; [24]
  inhibition of viral spread (percentage of infected cells vs vehicle control): 84%
SV40 [7]; cultures treated with 100 μM
  infectious virions in tissue culture supernatant (reinfection of naive cells): significantly less infectious virions
SVG-A or Vero cells
  cell viability at effective doses: do not negatively affect cell viability
JCPyV [8]
  infectivity regained when compound is added late: greater than 80%
  time of addition after which most of the inhibitory effect is lost: > 14 h
  time of addition at which infectivity is still significantly reduced: up to 4 hours post infection (hpi)
BKPyV [9]
  infectivity regained when compound is added late: greater than 80%
  time of addition after which most of the inhibitory effect is lost: > 12 h
  time of addition at which infectivity is still significantly reduced: up to 4 hours post infection (hpi)
SV40 [10]
  infectivity regained when compound is added late: greater than 80%
  time of addition after which most of the inhibitory effect is lost: > 12 h
  time of addition at which infectivity is still significantly reduced: up to 4 hours post infection (hpi)
BKPyV [11]
  binding to cells compared to vehicle control: slight decreases
SV40 [12]
  binding to cells compared to vehicle control: slight decreases
JCPyV [13]
  inhibition of endocytosis: does not inhibit endocytosis
BKPyV [14]
  inhibition of endocytosis: does not inhibit endocytosis
SV40 [15]
  inhibition of endocytosis: does not inhibit endocytosis
CTxB [16]
  inhibition of endocytosis: does not inhibit endocytosis
JCPyV [17]
  co-localization of JCV-633 with Rab5 endosomes: increases co-localization
  colocalization with the ER protein PDI: significantly reduces colocalization
BKPyV [18]
  colocalization with the ER protein PDI: significantly reduces colocalization
SV40 [19]
  colocalization with the ER protein PDI: reduced, although this reduction was not significant
CTxB [20]
  colocalization with the ER protein PDI: significantly reduces colocalization
JCPyV [21]
  cells exposing VP2: significant reduction of cells exposing VP2
BKPyV [22]
  cells exposing VP2: significant reduction of cells exposing VP2
SV40 [23]
  cells exposing VP2: significant reduction of cells exposing VP2
Stx2
  protection of cells from toxin: able to protect cells

## Cc1ccc(/C=N/c2cccc(C(=O)Nc3ccccc3)c2)s1 [Retro-2^meta]
JCPyV [1]
  inhibition of JCPyV infection (FIG. 8C): significantly less active
JCPyV [17]
  colocalization with the ER protein PDI: significant colocalization
BKPyV [18]
  colocalization with the ER protein PDI: significant colocalization
SV40 [19]
  colocalization with the ER protein PDI: significant colocalization
CTxB [20]
  colocalization with the ER protein PDI: significant colocalization

## Cc1ccc(CNc2ccccc2C(=O)Nc2ccccc2)s1 [Retro-2^red]
JCPyV [1]
  inhibition of JCPyV infection (FIG. 8C): significantly less active

## C[C@H]1CCC/C=C/[C@@H]2C[C@H](O)C[C@H]2[C@H](O)/C=C/C(=O)O1 [brefeldin A, reference compound]
JCPyV [1]; 20 ng/mL, SVG-A cells, positive control
  reduction in infectivity: 96%
JCPyV [17]
  colocalization with the ER protein PDI: significantly reduces colocalization
BKPyV [18]
  colocalization with the ER protein PDI: significantly reduces colocalization
SV40 [19]
  colocalization with the ER protein PDI: reduced, although this reduction was not significant
CTxB [20]
  colocalization with the ER protein PDI: significantly reduces colocalization
JCPyV [21]
  cells exposing VP2: significant reduction in the number of cells with VP2 exposed
BKPyV [22]
  cells exposing VP2: significant reduction in the number of cells with VP2 exposed
SV40 [23]
  cells exposing VP2: significant reduction in the number of cells with VP2 exposed
cells
  cytotoxicity to cells: highly cytotoxic

## CN(C)CCCN1c2ccccc2Sc2ccc(Cl)cc21 [chloropromazine, reference compound]
JCPyV [13]
  inhibition of endocytosis: inhibits endocytosis

## C[C@@H]1[C@H](O)[C@@H](C)/C=C/C=C/CC/C=C/C=C/C=C/C=C/C(O[C@H]2O[C@H](C)[C@@H](O)[C@H](N)[C@@H]2O)CC2O[C@](O)(CC(O)C(O)CCC(O)CC(O)CC(O)CC(=O)O[C@H]1C)CC(O)C2C(=O)O (stereo partly drawn) [nystatin, reference compound]
BKPyV [14]
  inhibition of endocytosis: inhibits endocytosis
SV40 [15]
  inhibition of endocytosis: inhibits endocytosis
CTxB [16]
  inhibition of endocytosis: inhibits endocytosis

Source: patent US9695156B2, “Compounds for the treatment and prevention of infections” (Brown University, priority 2012, dated 2017)
